Test results reported in the supplement of paper PMC8253809.

How the values were obtained:
[1] = system: HGGX39 (paediatric high-grade glioma line); assay: EC50 (inflection of fitted growth-inhibition curve) (log10 M)
Summary of the method: (§1)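 A pin tool was used to add a 10-point threefold dilution series (mean top concentration 35 μM), in triplicate, to patient-derived pHGG/DIPG cell lines and astrocyte controls seeded on 384-well plates coated with 1% Geltrex. After 7 days at 37 °C and 5% CO2 (3 days for iAstro), CellTiter-Glo luminescence was log2-transformed, normalised on each plate to % activity relative to negative (solvent) and positive control wells, and pooled. EC50 and maximal response (yFin) were read from the three- or four-parameter log-logistic fit with the lowest AICc.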

[2] = system: DIPGX37 (H3.3 K27M diffuse intrinsic pontine glioma line); assay: as above
Summary of the method: as §1

[3] = system: HGGX39; assay: maximal growth inhibition (yFin) relative to DMSO / staurosporine; higher = more efficacious
Summary of the method: as §1

[4] = system: DIPGX37; assay: as above
Summary of the method: as §1

[5] = system: HGGX6 (H3.3 G34R paediatric high-grade glioma line); assay: area under dose-response curve of % growth inhibition (log2 RLU vs DMSO / staurosporine), 1e-11 to 1e-4 M (% x log10 M); higher = more growth inhibition
Summary of the method: (§2)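 A 10-point threefold dilution series, mean top concentration 35 μM, was applied in triplicate to patient-derived pHGG/DIPG lines and astrocytes on 1% Geltrex-coated 384-well plates for 7 days (3 days for iAstro) at 37 °C, 5% CO2. Per-plate % activity between solvent and positive controls was calculated from log2-transformed CellTiter-Glo luminescence. Area under the curve followed from the trapezoid rule on a log-logistic fit, or on a smoothing spline when the sigmoid fit failed.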

[6] = system: HGGX39; assay: as above
Summary of the method: as §2

[7] = system: DIPGX29 (H3.3 K27M diffuse intrinsic pontine glioma line); assay: as above
Summary of the method: as §2

[8] = system: DIPGX37; assay: as above
Summary of the method: as §2

[9] = system: HGGX6; assay: EC50 (inflection of fitted growth-inhibition curve) (log10 M)
Summary of the method: as §1

[10] = system: HGGX6; assay: maximal growth inhibition (yFin) relative to DMSO / staurosporine; higher = more efficacious
Summary of the method: as §1

Compound	EC50 (log10 M) [1]	EC50 (log10 M) [2]	maximal growth inhibition [3] [%]	maximal growth inhibition [4] [%]	area under dose-response curve [5]	area under dose-response curve [6]	area under dose-response curve [7]	area under dose-response curve [8]	EC50 (log10 M) [9]	maximal growth inhibition [10] [%]
CC[C@H](C)C(=O)O[C@H]1CCC=C2C=C[C@H](C)[C@H](CC[C@@H]3C[C@@H](O)CC(=O)O3)[C@H]21 [MEVASTATIN]	-4.97	-5.53	57.7	20.8	23.3	56.7	32.6	41.4		
O=C1c2c(O)ccc(O)c2C(=O)c2c(NCCNCCO)ccc(NCCNCCO)c21 [MITOXANTHRONE]		-4.79		81.9	112	116	116	104		
COc1ccc(C2CC(c3ccccc3)=NN2c2ccc(S(N)(=O)=O)cc2)cc1 (stereo not given) [ML141]	-4.54		38.3		33.7	20	26.6	33.4		
Cc1sc2c(c1C)C(c1ccc(Cl)cc1)=N[C@@H](CC(=O)Nc1ccc(O)cc1)c1nnc(C)n1-2 [OTX015]	-5.11	-6.7	50.6	29.5	33.7	53.1	30.3	80		
CCCCOc1cc(C(=O)OCCN(CC)CC)ccc1N [OXYBUPROCAINE]	-4.97		67.2		29.7	65.7	11.5	16.5	-5.11	26.6
CC(=O)O[C@H]1C(=O)[C@@]2(C)[C@H]([C@H](OC(=O)c3ccccc3)[C@]3(O)C[C@H](OC(=O)[C@H](O)[C@@H](NC(=O)c4ccccc4)c4ccccc4)C(C)=C1C3(C)C)[C@]1(OC(C)=O)CO[C@@H]1C[C@@H]2O [PACLITAXEL]	-8.21	-8.09	42.5	24.3	55.2	179	42.1	99.3		
C#CCC(Cc1cnc2nc(N)nc(N)c2n1)c1ccc(C(=O)N[C@@H](CCC(=O)O)C(=O)O)cc1 (stereo not given in full) [PRALATREXATE]	-8.55		25.5		83.2	116	66.7	73	-7.84	22.1
Nc1cc(F)ccc1NC(=O)/C=C/c1cnn(C/C=C/c2ccccc2)c1 [RGFP966]		-4.62		68.6	12.3	13.5	17.1	66.1		
CN(C)C(=O)c1cc2cnc(Nc3ccc(N4CCNCC4)cn3)nc2n1C1CCCC1 [RIBOCICLIB]	-5.39		21.8		17.1	32.5	13.1	27.7		
N#CC[C@H](C1CCCC1)n1cc(-c2ncnc3[nH]ccc23)cn1 [RUXOLITINIB]	-5.58		27.7		28.9	44.9	24.4	44.2	-5.22	21.7
O=C(/C=C\n1cnc(-c2cc(C(F)(F)F)cc(C(F)(F)F)c2)n1)NNc1cnccn1 [SELINEXOR]	-6.06		96.2		205	195	144	169	-5.23	101
O=C(NCC(=O)N1CCCC1)Nc1ccc2cnccc2c1 [SGC-707]	-4.55		58.4		11.3	31.4	20.9	11.8		
CCC(C)(C)C(=O)O[C@H]1C[C@@H](C)C=C2C=C[C@H](C)[C@H](CC[C@@H]3C[C@@H](O)CC(=O)O3)[C@H]21 [SIMVASTATIN]	-4.94		53.9		24.4	63.6	29.8	39.1	-5.07	22.6
CO[C@H]1C[C@@H]2CC[C@@H](C)[C@@](O)(O2)C(=O)C(=O)N2CCCC[C@H]2C(=O)O[C@H]([C@H](C)C[C@@H]2CC[C@@H](O)[C@H](OC)C2)CC(=O)[C@H](C)/C=C(\C)[C@@H](O)[C@@H](OC)C(=O)[C@H](C)C[C@H](C)/C=C/C=C/C=C/1C [SIROLIMUS]		-4.68		67.7	62.6	58.5	47.3	59.1		
CC/C(=C(\c1ccccc1)c1ccc(OCCN(C)C)cc1)c1ccccc1 [TAMOXIFEN]		-4.61		64.9	12.2	8.92	8.96	50.8		
CS(=O)(=O)c1ccc([C@@H](O)[C@@H](CO)NC(=O)C(Cl)Cl)cc1 [THIAMPHENICOL]	-6		26		19.8	52	15.4	29.7		
O=C(c1cncc(Br)c1)N1CCC(N2CCCC2)CC1 [UNC669]					0	0.456	0	20.1		
O=C(c1cccc(Br)c1)N1CCC(N2CCCC2)CC1 [UNC926]					8.91	8.09	8.49	0		
O=C(c1ccc(C(=O)N2CCC(N3CCCC3)CC2)c(Nc2ccccc2)c1)N1CCC(N2CCCC2)CC1 [UNC1215]					6.97	5.82	4.19	15		
O=C(NCC(=O)N1CCCCC1)Nc1ccc2nnsc2c1 [UNC2327]					10.6	5.31	8.94	3.13		
CCCS(=O)(=O)Nc1ccc(F)c(C(=O)c2c[nH]c3ncc(-c4ccc(Cl)cc4)cc23)c1F [VEMURAFENIB]					8.94	7.32	5.27	2.53		
Cc1c(F)ccc(C(=O)Nc2cc([N+](=O)[O-])ccc2N2CCN(C)CC2)c1Cl [WDR5-C47]					7.74	5.16	4.98	27.1		
Nc1ccn([C@H]2CC[C@@H](CO)O2)c(=O)n1 [ZALCITABINE]					2.54	14.5	13.5	14.2		
